Measurements: the NIST ThermoML archive (doi:10.1021/je049636m)

Settings: Liquid

Cc1ccccc1 [toluene]
Settings	viscosity [mPa·s]
298.15 K, 100 kPa	0.555
298.15 K, 2110 kPa	0.5649
298.15 K, 4100 kPa	0.5743
298.15 K, 6100 kPa	0.585
298.15 K, 8110 kPa	0.5937
298.15 K, 10110 kPa	0.6024
323.15 K, 100 kPa	0.4188
323.15 K, 2080 kPa	0.429
323.15 K, 4110 kPa	0.4348
323.15 K, 6000 kPa	0.4409
323.15 K, 8120 kPa	0.4493
323.15 K, 10050 kPa	0.455
323.15 K, 12210 kPa	0.4637
323.15 K, 15000 kPa	0.4736
348.15 K, 100 kPa	0.3331
348.15 K, 2120 kPa	0.3382
348.15 K, 12110 kPa	0.3664
348.15 K, 15210 kPa	0.3759

viscosity [mPa·s], Vibrating wire viscometry
Settings	100 kPa	10000 kPa	20000 kPa	30000 kPa	40000 kPa
298.15 K	0.5551	0.6003	0.6445	0.6953	0.751
323.15 K	0.4223	0.4573	0.4945	0.5313	0.5718
348.15 K	0.3285	0.3583	0.3875	0.4165	0.4483
